Measured values from patent US20180110754A1, “CENICRIVIROC FOR THE TREATMENT OF FIBROSIS” (Tobira Therapeutics, Inc., priority 2015, published 2018).
Where two headings read alike, the source gives them in different places.

How the values were obtained:
[1] = molecular target: T1, CCR2 (Homo sapiens, UniProt P41597); experiment: MCP-1-induced CCR2 internalization / CCR2 receptor occupancy on monocytes (flow cytometry); format: cell-based
T1 construct: endogenous in cells; host or cells: monocytes within PBMCs from HIV+ and HIV- subjects
T1 sequence (P41597 1-360 isoform P41597-2): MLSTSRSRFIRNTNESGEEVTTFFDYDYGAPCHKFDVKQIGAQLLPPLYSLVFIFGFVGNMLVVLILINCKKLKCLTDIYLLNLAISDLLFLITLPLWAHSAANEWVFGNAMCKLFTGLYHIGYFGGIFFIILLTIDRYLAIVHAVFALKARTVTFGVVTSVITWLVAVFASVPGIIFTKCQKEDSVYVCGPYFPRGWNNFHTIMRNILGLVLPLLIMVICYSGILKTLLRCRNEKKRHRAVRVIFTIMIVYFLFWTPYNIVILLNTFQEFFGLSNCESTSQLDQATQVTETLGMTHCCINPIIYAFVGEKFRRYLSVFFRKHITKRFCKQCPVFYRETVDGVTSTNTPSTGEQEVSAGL
Protocol: The capacity of each drug to inhibit CCR5 or CCR2 internalization was evaluated. Cell-surface expression of CCR5 and CCR2 was assessed by flow cytometry, and fluorescence values were converted into molecules of equivalent soluble fluorescence (MESF).

[2] = Mouse toxicity studies; format: in vivo; conditions: doses up to 2000 mg/kg/day, no surgical procedures
[3] = molecular target: CCR7 (Homo sapiens, UniProt P32248); experiment: Inhibition of ligand binding to CCR7
[4] = tested on: HIV-1; experiment: Study 201: pharmacokinetic/pharmacodynamic Emax model; format: in vivo, human; conditions: for Emax: read-out: Percent of the maximum inhibitory effect at average Css (Emax model)
Description: Drug response was characterized using the following maximum effect (Emax) model:
where E is effect, E0 is the baseline effect (fixed to 0), Imax is the maximum inhibition, C denotes the PK variable (AUC0-24, Cmax, or steady-state concentration [Css]), IC50 is the value of the PK variable which corresponds to 50% of the maximum inhibition and γ is the shape parameter which describes the degree of sigmoidicity.

[5] = tested on: thioglycollate-induced peritonitis (monocyte/macrophage and leukocyte recruitment); experiment: Mouse thioglycollate-induced peritonitis model: peritoneal lavage cell counts, body weight; format: in vivo
Protocol: Summary: The mouse thioglycollate induced peritonitis model is a commonly used preclinical model to assess the recruitment of […] cells and to assess the activation of macrophages.
Dexamethasone was used as a positive control in this experiment as it is a corticosteroid known to reduce inflammation in a variety of animal models. Murine inflammation models indicate that the effective dose range for dexamethasone, when administered orally, is 0.3 to 3 mg/kg QD. On this basis, an intermediate dose of 1 mg/kg was chosen for this particular study.
The lavage was repeated with a second injection of 2.5 mL via the initial puncture site and the samples were pooled for each animal.
The lavage fluid was placed on wet ice pending processing for total and differential cell counts using the Advia analyzer. Following the lavage collection, a blood sample (0.7 mL) was collected from each mouse by intracardiac puncture or from the vena cava (collection time was recorded). 0.5 mL of blood was placed in an EDTA tube, transferred to clinical pathology and analyzed for differential cell counts using the Advia analyzer. 0.2 mL of blood was placed in a K2EDTA tube and processed to plasma. The plasma was collected by centrifugation (3000 rpm for 10 minutes at 4° C.) and placed on dry ice. […] After blood collection, the animals were then exsanguinated by sectioning of the abdominal aorta.
Statistical Analysis: One-way ANOVA with post-hoc Dunnett's statistical analysis was performed on differential cell counts obtained from lavage and blood samples. The analysis was performed in comparison to Group 2.

[6] = Mouse thioglycollate-induced peritonitis model: CVC plasma levels (LC/MS/MS); format: in vivo
Protocol: The lavage fluid was placed on wet ice pending processing for total and differential cell counts using the Advia analyzer. Following the lavage collection, a blood sample (0.7 mL) was collected from each mouse by intracardiac puncture or from the vena cava (collection time was recorded). 0.5 mL of blood was placed in an EDTA tube, transferred to clinical pathology and analyzed for differential cell counts using the Advia analyzer. 0.2 mL of blood was placed in a K2EDTA tube and processed to plasma. The plasma was collected by centrifugation (3000 rpm for 10 minutes at 4° C.) and placed on dry ice. The samples were analyzed to determine CVC plasma levels. After blood collection, the animals were then exsanguinated by sectioning of the abdominal aorta.
Animals received the test article by oral gavage from Days 1 to 5. The twice daily (BID) dosing in Groups 2 to 5 was separated by approximately 12 hours. Blood samples were collected on Day 6 for assessment of plasma levels. Samples were collected by intracardiac puncture or from the vena cava, placed in a K2EDTA tube, and processed to plasma. Samples were stored frozen at −70 to −90° until analyzed. Due to the sacrifice time (48 hours after thioglycollate administration) being dictated by the primary endpoint, samples were collected approximately 14 hours postdose for Groups 2-5 and 26 hours postdose for the remaining groups. No samples were collected for animals 105, 201, 303 and 503.

CCR7, sequence (P32248 25-378): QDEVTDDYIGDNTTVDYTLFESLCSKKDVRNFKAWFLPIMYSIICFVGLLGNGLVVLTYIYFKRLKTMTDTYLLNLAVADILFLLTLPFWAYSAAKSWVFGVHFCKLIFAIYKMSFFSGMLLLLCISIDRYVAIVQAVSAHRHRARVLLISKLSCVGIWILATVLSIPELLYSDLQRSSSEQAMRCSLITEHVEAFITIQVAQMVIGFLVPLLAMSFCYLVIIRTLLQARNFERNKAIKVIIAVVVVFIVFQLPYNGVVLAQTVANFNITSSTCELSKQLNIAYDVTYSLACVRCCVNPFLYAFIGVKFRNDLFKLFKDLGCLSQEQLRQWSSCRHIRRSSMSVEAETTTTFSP

CCCCOCCOc1ccc(-c2ccc3c(c2)/C=C(/C(=O)Nc2ccc([S@@+]([O-])Cc4cncn4CCC)cc2)CCCN3CC(C)C)cc1 [CVC, (S)-8-[4-(2-Butoxyethoxy)phenyl]-1-isobutyl-N-(4-{[(1-propyl-1H-imidazol-5-yl)methyl]sulfinyl}phenyl)-1,2,3,4-tetrahydro-1-benzazocine-5-carboxamide]
Concentration at which saturation of monocyte CCR2 was reached [1]: 6 nM | Concentration required to reach >80% CCR2 receptor occupancy (average) [1]: 1.8 nM | receptor occupancy at 0.006 µM ([1]; at 6 nM): ~98% | CCR2 cell-surface expression ([1]; in the absence of MCP-1): induced CCR2 internalization and decreased cell-surface expression on monocytes | Tolerability [2]: well tolerated | Inhibition of ligand binding to CCR7 [3]: did not inhibit | Emax ([4]; Human immunodeficiency virus 1, 25 mg): 54.9% | Emax ([4]; Human immunodeficiency virus 1, 50 mg): 79.8% | Emax ([4]; Human immunodeficiency virus 1, 75 mg): 85.9% | Emax ([4]; Human immunodeficiency virus 1, 150 mg): 95.9% | Emax in the PK/PD model (HIV-1 RNA) ([4]; in vivo): −1.43 log10 copies/mL | Decrease in monocytes in peritoneal lavage vs thioglycollate control (Group 2) ([5]; Group 3 (CVC BID)): 5.7% | Decrease in total leukocytes in peritoneal lavage vs thioglycollate control (Group 2) ([5]; Group 3 (CVC BID)): 0.8% | Decrease in monocytes in peritoneal lavage vs thioglycollate control (Group 2) ([5]; Group 4 (CVC BID)): 45.2% | Decrease in total leukocytes in peritoneal lavage vs thioglycollate control (Group 2) ([5]; Group 4 (CVC BID)): 22.2% | Decrease in monocytes in peritoneal lavage vs thioglycollate control (Group 2) ([5]; Group 5 (CVC BID)): 76.5% | Decrease in total leukocytes in peritoneal lavage vs thioglycollate control (Group 2) ([5]; Group 5 (CVC BID)): 57.6% | Decrease in monocytes in peritoneal lavage vs thioglycollate control (Group 2) ([5]; Group 6 (CVC QD)): 26.0% | Decrease in total leukocytes in peritoneal lavage vs thioglycollate control (Group 2) ([5]; Group 6 (CVC QD)): 14.2% | Body weights, Days 1 to 6 ([5]; mouse, in vivo): no notable changes in body weights | Plasma levels at the approximate trough (14 hours postdose) ([6]; BID dosing, Day 6): increased in a dose-related manner | concentration at 14.5 h ([6]; mouse, plasma, mice, Day 6, Group 3, 5 mg/kg/day (BID) oral, ~14 hours postdose (actual 14.5 hours), N=2, 3 of 5 samples below LLOQ (10 ng/mL)): 13.5 ng/mL | concentration at 15 h ([6]; mouse, plasma, mice, Day 6, Group 4, 20 mg/kg/day (BID) oral, ~14 hours postdose (actual 15 hours)): 81.2 ± 22.8 ng/mL | concentration at 15.5 h ([6]; mouse, plasma, mice, Day 6, Group 5, 100 mg/kg/day (BID) oral, ~14 hours postdose (actual 15.5 hours)): 551 ± 253 ng/mL | concentration at 28 h ([6]; mouse, plasma, mice, Day 6, Group 6, 20 mg/kg/day (QD) oral, ~26 hours postdose (actual 28 hours)): 25.7 ± 8.1 ng/mL
